Measured values taken from US20250019387A1 (Frontier Medicines Corporation, priority 0001, published 2025).

What follows are compounds tested against KRAS G12C and cRAF (Ras-binding domain) interaction (Homo sapiens (Human), UniProt P01116, C118S/C51S/C80L/G12C) (assay: Inhibition of KRAS G12C and cRAF binding (AlphaScreen)). Conditions: GMPPNP-loaded KRAS G12C, 19-20 hours incubation with compound; read-out: IC50 (Inhibition of KRAS G12C and cRAF Binding).
Method in brief: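 IC50 values come from 4-parameter nonlinear regression of AlphaScreen signal (680 nm excitation, 570 nm emission). Compound plates sat 19-20 h at room temperature before RBD and donor/acceptor beads were added in Hepes pH 7.4 buffer with 150 mM NaCl, 5 mM MgCl2, 2% DMSO for 60-90 min; biotin-AviTag-GST replaced RBD to flag assay-technology interferers.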

Sequence of KRAS G12C and cRAF (Ras-binding domain) interaction (P01116 other isoform, or with tags, fused parts or gaps G12C/C51S/C80L/C118S): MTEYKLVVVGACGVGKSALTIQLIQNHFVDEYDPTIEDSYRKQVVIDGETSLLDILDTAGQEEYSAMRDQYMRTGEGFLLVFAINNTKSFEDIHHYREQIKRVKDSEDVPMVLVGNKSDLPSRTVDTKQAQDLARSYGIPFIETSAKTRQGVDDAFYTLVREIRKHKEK

Structure (SMILES) | IC50
CN(c1nc(OC[C@@]23CCCN2C[C@H](F)C3)nc2c(F)c(-c3cccc4ccc(F)c(Cl)c34)ncc12)[C@@H]1CCN(C(=O)/C=C/C2COCCN2)C1 (stereo partly drawn) [Example 123, (E)-1-((R)-3-((7-(8-chloro-7-fluoronaphthalen-1-yl)-8-fluoro-2-(((2R,7aS)-2-fluorotetrahydro-1H-pyrrolizin-7a(5H)-yl)methoxy)pyrido[4,3-d]pyrimidin-4-yl)(methyl)amino)pyrrolidin-1-yl)-3-(morpholin-3-yl)prop-2-en-1-one] | 100 to 500 nM
CCN(CCNC(=O)/C=C/C(=O)OC)c1nc(OC[C@@H]2CCCN2C)nc2c1CCN(c1cccc3cccc(Cl)c13)C2 [Example 12, methyl(S,E)-4-((2-((7-(8-chloronaphthalen-1-yl)-2-((1-methylpyrrolidin-2-yl)methoxy)-5,6,7,8-tetrahydropyrido[3,4-d]pyrimidin-4-yl)(ethyl)amino)ethyl)amino)-4-oxobut-2-enoate] | > 500 nM
CN(c1nc(OC[C@@]23CCCN2C[C@H](F)C3)nc2c(F)c(-c3cccc4ccc(F)c(Cl)c34)ncc12)[C@@H]1CCN(C(=O)/C=C/C2CCN2)C1 (stereo partly drawn) [Example 103, (E)-3-(azetidin-2-yl)-1-((R)-3-((7-(8-chloro-7-fluoronaphthalen-1-yl)-8-fluoro-2-(((2R,7aS)-2-fluorotetrahydro-1H-pyrrolizin-7a(5H)-yl)methoxy)pyrido[4,3-d]pyrimidin-4-yl)(methyl)amino)pyrrolidin-1-yl)prop-2-en-1-one] | 10 to 100 nM
COC(=O)/C=C/C(=O)N1C[C@@H](N(C)c2nc(OC[C@@H]3CCCN3C)nc3c2CCN(c2cccc4cccc(Cl)c24)C3)C[C@@H]1C [Example 4, methyl(E)-4-((2S,4S)-4-((7-(8-chloronaphthalen-1-yl)-2-(((S)-1-methylpyrrolidin-2-yl)methoxy)-5,6,7,8-tetrahydropyrido[3,4-d]pyrimidin-4-yl)(methyl)amino)-2-methylpyrrolidin-1-yl)-4-oxobut-2-enoate] | > 500 nM
CN(CC1CN(C(=O)/C=C/c2ccncn2)C1)c1nc(OC[C@@]23CCCN2C[C@H](F)C3)nc2c1CCN(c1cccc3cccc(Cl)c13)C2 [Example 70, (E)-1-(3-(((7-(8-chloronaphthalen-1-yl)-2-(((2R,7aS)-2-fluorohexahydro-1H-pyrrolizin-7a-yl)methoxy)-5,6,7,8-tetrahydropyrido[3,4-d]pyrimidin-4-yl)(methyl)amino)methyl)azetidin-1-yl)-3-(pyrimidin-4-yl)prop-2-en-1-one] | 10 to 100 nM
C#Cc1c(F)ccc2cccc(-c3ncc4c(N(C)[C@@H]5CCN(C(=O)/C=C/CN6CC[C@@H](F)C6)C5)nc(OC[C@@]56CCCN5C[C@H](F)C6)nc4c3F)c12 [Example 289, (E)-1-((R)-3-((7-(8-ethynyl-7-fluoronaphthalen-1-yl)-8-fluoro-2-(((2R,7aS)-2-fluorotetrahydro-1H-pyrrolizin-7a(5H)-yl)methoxy)pyrido[4,3-d]pyrimidin-4-yl)(methyl)amino)pyrrolidin-1-yl)-4-((R)-3-fluoropyrrolidin-1-yl)but-2-en-1-one] | 10 to 100 nM
C[C@@H](F)c1noc(/C=C/C(=O)N2CC[C@@H](N(C)c3nc(OC[C@@]45CCCN4C[C@H](F)C5)nc4c(F)c(-c5cccc6cccc(Cl)c56)ncc34)C2)n1 [Example 84, (E)-1-((R)-3-((7-(8-chloronaphthalen-1-yl)-8-fluoro-2-(((2R,7aS)-2-fluorotetrahydro-1H-pyrrolizin-7a(5H)-yl)methoxy)pyrido[4,3-d]pyrimidin-4-yl)(methyl)amino)pyrrolidin-1-yl)-3-(3-((R)-1-fluoroethyl)-1,2,4-oxadiazol-5-yl)prop-2-en-1-one] | < 10 nM
C#Cc1c(F)ccc2cccc(-c3ncc4c(N(C)[C@@H]5CCN(C(=O)/C=C/c6nc(C)nc(C)c6F)C5)nc(OC[C@@]56CCCN5C[C@H](F)C6)nc4c3F)c12 [Example 302, (E)-1-((R)-3-((7-(8-ethynyl-7-fluoronaphthalen-1-yl)-8-fluoro-2-(((2R,7aS)-2-fluorotetrahydro-1H-pyrrolizin-7a(5H)-yl)methoxy)pyrido[4,3-d]pyrimidin-4-yl)(methyl)amino)pyrrolidin-1-yl)-3-(5-fluoro-2,6-dimethylpyrimidin-4-yl)prop-2-en-1-one] | 10 to 100 nM
CN1CCC(C#CC(=O)N2CC[C@@H](N(C)c3nc(OC[C@@]45CCCN4C[C@H](F)C5)nc4c(F)c(-c5cccc6cccc(Cl)c56)ncc34)C2)C1 (stereo partly drawn) [Example 65, 1-((R)-3-((7-(8-chloronaphthalen-1-yl)-8-fluoro-2-(((2R,7aS)-2-fluorohexahydro-1H-pyrrolizin-7a-yl)methoxy)pyrido[4,3-d]pyrimidin-4-yl)(methyl)amino)pyrrolidin-1-yl)-3-(1-methylpyrrolidin-3-yl)prop-2-yn-1-one] | 10 to 100 nM
CN(CC1CN(C(=O)/C=C/c2nc(C3COC3)no2)C1)c1nc(OC[C@@]23CCCN2C[C@H](F)C3)nc2c(F)c(-c3cccc4cccc(Cl)c34)ncc12 [Example 152, (E)-1-(3-(((7-(8-chloronaphthalen-1-yl)-8-fluoro-2-(((2R,7aS)-2-fluorotetrahydro-1H-pyrrolizin-7a(5H)-yl)methoxy)pyrido[4,3-d]pyrimidin-4-yl)(methyl)amino)methyl)azetidin-1-yl)-3-(3-(oxetan-3-yl)-1,2,4-oxadiazol-5-yl)prop-2-en-1-one] | < 10 nM
Cc1nccc(/C=C/C(=O)N2C[C@H](F)[C@@H](N(C)c3nc(OC[C@@]45CCCN4C[C@H](F)C5)nc4c(F)c(-c5cccc6cccc(Cl)c56)ncc34)C2)n1 [Example 216, (E)-1-((3S,4S)-3-((7-(8-chloronaphthalen-1-yl)-8-fluoro-2-(((2R,7aS)-2-fluorotetrahydro-1H-pyrrolizin-7a(5H)-yl)methoxy)pyrido[4,3-d]pyrimidin-4-yl)(methyl)amino)-4-fluoropyrrolidin-1-yl)-3-(2-methylpyrimidin-4-yl)prop-2-en-1-one] | 100 to 500 nM
CN(c1nc(OC[C@@]23CCCN2C[C@H](F)C3)nc2c(F)c(-c3cccc4ccc(F)c(Cl)c34)ncc12)[C@@H]1CCN(C(=O)/C=C/[C@H]2CCN2CC2COC2)C1 [Example 213, (E)-1-((R)-3-((7-(8-chloro-7-fluoronaphthalen-1-yl)-8-fluoro-2-(((2R,7aS)-2-fluorotetrahydro-1H-pyrrolizin-7a(5H)-yl)methoxy)pyrido[4,3-d]pyrimidin-4-yl)(methyl)amino)pyrrolidin-1-yl)-3-((R)-1-(oxetan-3-ylmethyl)azetidin-2-yl)prop-2-en-1-one] | 10 to 100 nM
Cc1cc(/C=C/C(=O)N2CCN(c3nc(OC[C@@]45CCCN4C[C@H](F)C5)nc4c(F)c(-c5cccc6cccc(Cl)c56)ncc34)CC2)nc(C)n1 [Example 243, (E)-1-(4-(7-(8-chloronaphthalen-1-yl)-8-fluoro-2-(((2R,7aS)-2-fluorotetrahydro-1H-pyrrolizin-7a(5H)-yl)methoxy)pyrido[4,3-d]pyrimidin-4-yl)piperazin-1-yl)-3-(2,6-dimethylpyrimidin-4-yl)prop-2-en-1-one] | 100 to 500 nM
C#Cc1c(F)ccc2cccc(-c3ncc4c(N(C)[C@@H]5CCN(C(=O)C=C)C5)nc(OC[C@@]56CCCN5C[C@H](F)C6)nc4c3F)c12 [Example 187, 1-((R)-3-((7-(8-ethynyl-7-fluoronaphthalen-1-yl)-8-fluoro-2-(((2R,7aS)-2-fluorohexahydro-1H-pyrrolizin-7a-yl)methoxy)pyrido[4,3-d]pyrimidin-4-yl)(methyl)amino)pyrrolidin-1-yl)prop-2-en-1-one] | < 10 nM
C=CC(=O)N1CC[C@@H](N(C)c2nc(OC[C@@]34CCCN3C[C@H](F)C4)nc3c(F)c(-c4cccc5cc(Cl)cc(Cl)c45)ncc23)C1 [Example 263, 1-((R)-3-((7-(6,8-dichloronaphthalen-1-yl)-8-fluoro-2-(((2R,7aS)-2-fluorotetrahydro-1H-pyrrolizin-7a(5H)-yl)methoxy)pyrido[4,3-d]pyrimidin-4-yl)(methyl)amino)pyrrolidin-1-yl)prop-2-en-1-one] | > 500 nM

Same assay, conditions: additional exemplary compounds; KRAS G12C and cRAF binding; read-out: RAF1 RBD IC50

Structure (SMILES) | IC50
CCN(C/C=C/S(=O)(=O)CCN(C)c1nc(OCC23CCCN2CCC3)nc2c(F)c(-c3cccc4cccc(Cl)c34)ncc12)CCOC | 10 to 100 nM
C=CC(=O)N1CC[C@@H](O)[C@H](N(C)c2nc(OC[C@@]34CCCN3C[C@H](F)C4)nc3c(F)c(-c4cccc5cccc(Cl)c45)ncc23)C1 | > 500 nM
C=CC(=O)CCCCN(C)c1nc(OC[C@@H]2CCCN2C)nc2c1CCN(c1cccc3ccccc13)C2 | 100 to 500 nM
C=CC(=O)N1C[C@H](N(C)c2nc(OC[C@@]34CCCN3C[C@H](F)C4)nc3c(F)c(-c4cccc5cccc(Cl)c45)ncc23)C[C@H]1CC#N | 10 to 100 nM
CN(C)C/C=C/S(=O)(=O)CCN(C)c1nc(OC[C@@]23CCCN2C[C@H](F)C3)nc2c1CCN(c1cccc3cccc(Cl)c13)C2 | < 10 nM
O=C(/C=C/CN1CCOCC1)N1C[C@@H]2C[C@H]1CN2c1nc(OC[C@@]23CCCN2C[C@H](F)C3)nc2c(F)c(-c3cccc4cccc(Cl)c34)ncc12 | > 500 nM
C=CC(=O)N1CC[C@H](O)[C@@H](N(C)c2nc(OC[C@@]34CCCN3C[C@H](F)C4)nc3c(F)c(-c4cccc5cccc(Cl)c45)ncc23)C1 | 10 to 100 nM
CN1CCC1/C=C/C(=O)N1CCCN(c2nc(OC[C@@]34CCCN3C[C@H](F)C4)nc3c(F)c(-c4cccc5cccc(Cl)c45)ncc23)CC1 (stereo partly drawn) | > 500 nM
C=CC(=O)N1C[C@H](N(C)c2nc(OCC34CCCN3CCC4)nc3c2CCN(c2cccc4cccc(Cl)c24)C3)CC1C#N (stereo partly drawn) | 100 to 500 nM
C=CC(=O)N1CCC[C@@H](Nc2nc(OC[C@@]34CCCN3C[C@H](F)C4)nc3c(F)c(-c4cccc5cccc(Cl)c45)ncc23)C1 | > 500 nM
C=CC(=O)N1CCC(N(c2nc(OCC34CCCN3CCC4)nc3c(F)c(-c4cccc5cccc(Cl)c45)ncc23)C2CC2)C1 (stereo not drawn) | > 500 nM
C=CS(=O)(=O)CCN(C)c1nc(OCC23CCCN2CCC3)nc2c(F)c(-c3cccc4cccc(Cl)c34)ncc12 | < 10 nM
